Assays:
Flk1+ MPCs [1] = assay: Differentiation and expansion of ECs from Flk1+ MPCs in feeder cell-free 2D Matrigel system, FACS of CD31+/CD144+ ECs; type: cell-based, mouse; settings: for EC population: other ROCK inhibitors
Experimental: E14tg2a ESC cell line was a generous gift from Dr. Jun K. Yamashita (Kyoto University), and R1 ESC cell line was purchased from American Type Cell Culture. Mouse iPSC derived from FVB strain was a generous gift from Drs. Hyun-Jai Cho and Hyo-Soo Kim (Seoul National University Hospital). To obtain Flk1+ MPCs, ESCs and iPSCs were cultured on 0.1% gelatin-coated plates at a density of 1-2×10^3 cells/cm^2 in differentiation medium [┌−minimal essential medium (Invitrogen) supplemented with 10% fetal bovine serum (FBS)] without leukemia inhibitory factor (LIF). At day 4.5, the Flk1+ MPCs were purified by AutoMACS™Pro Separator (Miltenyi Biotec) with biotin-conjugated anti-mouse Flk1 antibody (clone AVAS12a1, eBioscience) and streptavidin MicroBeads (Miltenyi Biotec). The Flk1+MPCs were then subsequently plated onto Matrigel (BD Biosciences)-coated plates at a density of 1˜2×10^4 cells/cm^2, and were cultured in differentiation medium supplemented with VEGF-A165 (50 ng/ml, Peprotech). To purify the ECs from the differentiating Flk1+ cells, the cells were first dissociated and resuspended in HBSS/2% FBS, and were serially incubated with anti-mouse ICAM2 antibody (rat monoclonal, clone 3C4, Biolegend) for 10 min and with anti-rat IgG Microbead (Miltenyi Biotec) for 15 min. […] VEGF-Trap was prepared as previously described. Various signaling inhibitors and activators including SB203580, PD98059, KT5720, Go6976, KT5823, LY294002, rapamycin, Y27632, SB431542, Rho-kinase inhibitor (RKI; H-1152, isoquinolinesulfonamide), and Rho-kinase inhibitor II (RKI-II; pyridyl urea) were purchased from Calbiochem and Sigma-Aldrich.
Cells were harvested with 0.25% trypsin-EDTA (Invitrogen) or dissociation buffer (Invitrogen) and resuspended in HBSS/2% FBS at 1×10^6 cells per 100┌ l. The cells were incubated for 20 min with the following antibodies: biotin-conjugated anti-mouse Flk1 (clone AVAS12a1, eBioscience), allophycocyanin (APC)-conjugated anti-mouse CD140a (clone APA5, eBioscience), phycoerythrin(PE)-conjugated anti-mouse CD31 (clone 390, eBioscience), Alexa Fluor® 647-conjugated anti-mouse CD144 (clone BV13, eBioscience), PE-conjugated anti-mouse D114 (clone HMD4-1, Biolegend), PE-conjugated anti-mouse Tie2 (clone TEK4, eBioscience), PE-conjugated anti-mouse Endoglin (clone MJ7/18, Biolegend), anti-mouse ICAM2 (clone 3C4, Biolegend), APC-conjugated anti-mouse CD140b (clone APBS, eBioscience), PE-conjugated anti-mouse LYVE1 (clone ALY7, eBioscience), anti-mouse VEGFR3 (goat polyclonal, R&D systems), anti-mouse EphB4 (clone VEB4-7E4, Hycult biotech), and PE-conjugated anti-mouse Notch1 (clone HMN1-12, Biolegend). After washing in HBSS/2% FBS twice, the cells were incubated with the following secondary antibodies: PE-conjugated streptavidin (eBioscience), PE-conjugated anti-rat IgG2a (eBioscience), and FITC-conjugated anti-goat IgG (Invitrogen). Dead cells were excluded by 7-aminoactinomycin D (7-AAD, Invitrogen).
Flk1+ MPCs derived from mouse ESCs are capable of differentiating into ECs, hematopoietic cells, mural cells (MCs), and cardiomyocytes. To avoid cell contamination from using feeder cells for differentiation of Flk1+ MPCs, we have established a feeder cell-free 2D Matrigel system (FIG. 1A). Flk1+ MPCs were differentiated from E14tg2a ESC cell line, and when the Flk1+ MPCs were purified at day 4.5 and cultured on Matrigel-coated plates in the differentiation medium, colonies of CD144+ ECs surrounded by ┌ SMA+MCs were formed (FIG. 1B). At day 6.5, population of CD144+/CD31+ ECs grown in differentiation medium was ˜4%, whereas the same EC population was increased up to ˜20% when VEGF-A (50 ng/ml) was supplemented (FIG. 1C). For following experiments, we chose to use 50 ng/ml of VEGF-A (hereafter referred to as VEGF-A) based on its maximal effect on differentiation and expansion of ECs from Flk1+ MPCs.

Flk1+ MPCs [2] = assay: Differentiation of MCs from Flk1+ MPCs, FACS of αSMA+ MCs; type: cell-based, mouse; settings: Y27632 10 μM; ML7 5 μM
Experimental: FIGS. 11A-11D. ROCK suppression promotes the differentiation of ECs through PTEN-Akt signaling and inhibits the differentiation of MCs through MyPT-MLC signaling. (FIG. 11A) Representative FACS analysis of CD31+/CD144+ ECs incubated with 0.1% DMSO or LY294002 (20┌ M; LY) in the presence of PBS (Control) or Y27632 (10┌ M; Y). (FIG. 11B) % of CD31+/CD144+ EC population. Each group, n=3. *p<0.01 versus 0. Each group, n=3. *p<0.01 versus DMSO; ^#p<0.01 versus Y27632. (FIG. 11C) Representative FACS analysis of ┌ SMA+MCs or CD144+ ECs incubated with 0.1% DMSO or ML7 (5 ┌ M) in the presence of PBS (Control) or Y27632 (10┌ M). (FIG. 11D) % of ┌ SMA+MC population. Each group, n=3. *p<0.01 versus 0. Each group, n=3. *p<0.01 versus DMSO. n.s. represents statistically non-significant.
Analysis and sorting for CMs were performed at day 10.5. We harvested differentiated Flk1+ MPCs on OP9 cells with 0.25% trypsin-EDTA or dissociation buffer (Invitrogen). Cardiac troponin-T (cTnT)+ and ┌ smooth muscle actin (SMA)+ cells were analyzed after permeabilization using Cytofix/Cytoperm solution (BD Biosciences) for 15 min. After permeabilization, the cells were incubated for 30 min with anti-mouse cTnT (NeoMarkers) monoclonal antibody. […] Data were analyzed using FlowJo Version 7.5.4 software (TreeStar).

Molecule: O=c1cc(N2CCOCC2)oc2c(-c3ccccc3)cccc12 [LY294002]
- ROCK suppression-induced differentiation and expansion of ECs (Flk1+ MPCs [1]; LY294002 20 μM with Y27632 under VEGF-A stimulus): almost completely suppressed
- CD31+/CD144+ EC population (Flk1+ MPCs [1]; inhibitor treated with VEGF-A, day 6.5): strongly reduced

Molecule: O=S(=O)(c1cccc2c(I)cccc12)N1CCCNCC1 [ML7]
- reduction of αSMA+MC population (Flk1+ MPCs [2]): ~31%

Molecule: O=C(Nc1ccncc1)Nc1c(Cl)cc(Cl)cc1Cl [RKI-II]
- EC population (Flk1+ MPCs [1]): similarly increased

Molecule: Cc1cncc2cccc(S(=O)(=O)N3CCCNC[C@@H]3C)c12 [RKI]
- EC population (Flk1+ MPCs [1]): similarly increased

Molecule: VEGF-Trap: blocks the action of VEGF-A; prepared as previously described
- ROCK suppression-induced expansion of ECs (Flk1+ MPCs [1]; pretreatment of VEGF-Trap (5 μg/ml) during differentiation): totally abolished

From patent US20150368617A1, “METHOD FOR FORMING ENDOTHELIAL CELLS” (Korea Advanced Institute of Science and Technology (KAIST), priority 2012, published 2015)
